Results taken from patent publication US8148386B2, “Agent for the prevention and treatment of prostatic hyperplasia comprising pyrazolopyrimidinone compound” (priority 2006, dated 2012).
Like-named read-outs stand apart in the source and are kept apart here. Each block holds one compound with its values, some of them ahead of it.

What was measured:
[1] = Interrupt rate of administration due to side effects of PDE-5 inhibitors after clinical trials on impotence
[2] = cited from earlier work
[3] = Phase 1 clinical trial: safety, tolerability and pharmacokinetics in healthy adults; assay type: in vivo, human
[4] = Pharmacokinetic experiment in the human body (BPH patients); assay type: in vivo
Experimental: The test was carried out in a double-blind manner and the participants were administrated with the test drugs with 240 ml of water at 8:00 to 9:00 am of the test day. After administration, all participants were fasted for four hours. After the fast, they were served a lunch of standard diet and provided a dinner of standard diet nine hours after the lunch. Blood collections were carried out before administrating the test drugs and 0.5, 1, 1.5, 2, 2.5, 3, 4, 5, 6, 8, 12 and 24 hours after the administration on the test day. From the bloods collected, blood plasmas were separated and analyzed using high performance liquid chromatography (HPLC). […] of 0.1 M sodium carbonate and 1.0 ml of ethylether were added to each 0.5 ml of blood plasma and mixed well for one minute. Then, the resultant solutions were centrifuged at […] for three minutes. Subsequently, the supernatants were collected, from which organic solvents were volatilized using a Speed-Vac, to which […] of mobile phases were added, stirred and injected into the high performance liquid chromatography (HPLC).

PDE-5 = PDE-5 (Homo sapiens, UniProt O76074); assay: Inhibition of PDE-5 activity; assay type: biochemical
[5] = Xenobiotica 2004 34:973-982; cited from earlier work
PDE-11 = PDE-11 (Homo sapiens, UniProt Q9HCR9)
BPH rat models [6] = assay: Single administration: intraurethral pressure in BPH rat models; assay type: in vivo, Wistar rats
Experimental: In the present experiment, thirty male white […] rats of 300 to 350 g were randomly divided into five control groups of six rats. The first group (1') was left untreated as a normal group and the other groups were those whose testicles were resected. From a couple of days after the operations, each rat in the third to fifth groups was given a daily hypodermic injection of 1 mg of testosterone and 0.01 mg of 17 beta-estradiol for 8 weeks. After 8 weeks, all rats were anesthetized by an intraperitoneal injection with 50 mg/kg of pentobarbital, and intubated with polyethylene needles. The second group (2') was those whose testicles were resected only; the third group (3') was treated with a solvent; the fourth group (4') was treated with 0.3 mg/kg of the pyrazolopyrimidinone compound of formula 1; and the fifth group (5') was treated with 1 mg/kg of the pyrazolopyrimidinone compound of formula 1, the fourth and fifth groups being administrated via intravenous injections. […] In the measurement, 5, 10 and 20 Hz of electrostimulations were applied to hypogastric nerves using a stainless steel anode electrode, and the measured results were shown in FIGS. 5 to 8.

BPH rat models [7] = assay: Repeated administration: intraurethral pressure in BPH rat models; assay type: in vivo, Wistar rats; details: oral 1, 5 and 20 mg/kg for 8 weeks; 5, 10 and 20 Hz electrostimulation of hypogastric nerves; FIGS. 1 to 4
Experimental: In the present experiment, thirty-six male white Wistar rats of 300 to 350 g were randomly divided into six control groups of six rats. The first group (1) was left untreated as a normal control group and the other groups were those whose testicles were […]. From a couple of days after the operations, each rat in the third to sixth groups was given a daily hypodermic injection of 1 mg of testosterone and 0.01 mg of 17 beta-estradiol for 8 weeks. The second group (2) was those whose testicles were […] only; the third group (3) was treated with a solvent; the fourth group (4) was treated with 1 mg/kg of the pyrazolopyrimidinone compound of formula 1; the fifth group (5) was treated with 5 mg/kg of the pyrazolopyrimidinone compound of formula 1; and the sixth group (6) was treated with 20 mg/kg of the pyrazolopyrimidinone compound of formula 1, the fourth to sixth groups being orally administrated for 8 weeks. After 8 weeks, all rats were anesthetized by an intraperitoneal injection with 50 mg/kg of pentobarbital, and intubated with polyethylene needles. […] In the measurement, 5, 10 and 20 Hz of electrostimulations were applied to hypogastric nerves using a stainless steel anode electrode, and the measured results were shown in FIGS. 1 to 4.

[8] = Tissue distribution in urogenital organs; details: male, Sprague-Dawley, rat, 30 mg/kg
Experimental: Male white Sprague-Dawley (SD) rats were randomly assigned by four to five rats at different time points. […] At different time points of 30 minutes, 2 hours and 6 hours after administration, bloods were collected through abdominal aortas and urogenital organs were extracted. Phosphate buffer of pH 7.4 was added to the extracted organs to be homogenized. […] Analyses were performed using a Hichrom HIRPB column (150×4.6 mm, particle size: 5 μm) at fixed wavelength of 292 nm with a mobile phase mixed with 20 nM of KH2PO4 and acetonitrile in a volume ratio of 70:30. The mobile phase flow rate was 1 ml/min. and the amount of sample introduced was 100 ml.

PDE-11, sequence (Q9HCR9 whole entry): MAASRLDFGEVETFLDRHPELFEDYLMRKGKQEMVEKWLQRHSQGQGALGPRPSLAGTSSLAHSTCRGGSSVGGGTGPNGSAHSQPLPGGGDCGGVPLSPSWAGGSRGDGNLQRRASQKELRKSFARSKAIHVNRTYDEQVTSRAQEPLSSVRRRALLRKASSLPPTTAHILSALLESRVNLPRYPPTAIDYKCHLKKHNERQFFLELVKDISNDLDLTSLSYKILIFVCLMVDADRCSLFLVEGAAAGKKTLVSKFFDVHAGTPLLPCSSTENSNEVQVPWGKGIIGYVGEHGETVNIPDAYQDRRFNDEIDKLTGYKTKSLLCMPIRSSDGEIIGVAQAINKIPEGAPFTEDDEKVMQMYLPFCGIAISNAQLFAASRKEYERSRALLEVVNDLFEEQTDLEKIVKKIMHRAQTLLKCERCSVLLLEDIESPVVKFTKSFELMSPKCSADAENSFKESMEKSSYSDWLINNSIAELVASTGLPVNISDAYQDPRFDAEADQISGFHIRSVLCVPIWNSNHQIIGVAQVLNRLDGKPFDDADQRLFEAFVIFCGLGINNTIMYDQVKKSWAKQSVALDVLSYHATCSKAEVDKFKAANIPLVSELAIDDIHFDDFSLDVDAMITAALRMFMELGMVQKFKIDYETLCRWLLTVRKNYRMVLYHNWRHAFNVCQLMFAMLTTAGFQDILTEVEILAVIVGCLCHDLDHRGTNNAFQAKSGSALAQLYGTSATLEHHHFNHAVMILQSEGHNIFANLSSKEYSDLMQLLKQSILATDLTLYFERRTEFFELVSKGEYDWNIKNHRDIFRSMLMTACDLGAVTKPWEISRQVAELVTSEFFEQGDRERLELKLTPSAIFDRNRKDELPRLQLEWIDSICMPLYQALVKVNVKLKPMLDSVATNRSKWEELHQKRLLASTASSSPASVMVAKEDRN

Compound: CN1CC(=O)N2[C@H](c3ccc4c(c3)OCO4)c3[nH]c4ccccc4c3C[C@@H]2C1=O [Cialis]
Interrupt rate (%) of administration due to side effects ([1]; 5 mg): 0.7%
Interrupt rate (%) of administration due to side effects ([1]; 10 mg): 1.6%
Interrupt rate (%) of administration due to side effects ([1]; 20 mg): 3.1%
IPSS change ([2]; 5 mg once a day for 6 weeks): 2.8 points
IPSS change ([2]; dose increased to 20 mg, additional 6 weeks): 3.8 points
interrupt rate of administration due to the side effects ([2]; phase 2 clinical trial): 3.6%

Compound: CCCOc1ccc(S(=O)(=O)NCCC2CCCN2C)cc1-c1nc2c(CCC)nn(C)c2c(=O)[nH]1 (stereo not shown) [Compound of formula 1, 5-[2-propyloxy-5-(1-methyl-2-pyrrolidinylethylamidosulfonyl)phenyl]-1-methyl-propyl-1,6-dihydro-7H-pyrazolo(4,3-d)pyrimidin-7-one]
half-life ([3]; human, in vivo, oral, regardless of the doses administrated, healthy adults): 9 to 15 h
Tmax ([3]; human, in vivo, after oral administration, healthy adults): 1 to 2 h
abnormal responses to the test substance ([3]; phase 1 clinical trial): no serious abnormal responses
accumulation of drug ([3]; repeated administration once a day for 7 days): not observed
half-life ([4]; human, in vivo, 100 mg): 12.1 ± 3.2 h
half-life ([4]; male, human, in vivo): 9 to 15 h
Interrupt rate (%) of administration due to side effects ([1]; 100 mg): 0.0%
Interrupt rate (%) of administration due to side effects ([1]; 200 mg): 1.2%
inhibitive activity for PDE-5 (PDE-5): strong inhibitive activity
selectivity for PDE-5 (PDE-5): excellent selectivity
residual rate after liver metabolism [5]: 93.0%
inhibition of the activity of PDE-11 (PDE-11): does not have an inhibiting power
intraurethral pressure, significance of decrease (BPH rat models [6]; 0.3 mg/kg intravenous, 5 and 10 Hz): did not show significant decreases
intraurethral pressure, significance of change (BPH rat models [6]; 0.3 mg/kg intravenous, 20 Hz): significant increase
prevention of increases in the intraurethral pressure in comparison with sildenafil (BPH rat models [6]; single administration, sildenafil of same volume): excellent effects
increases in the intraurethral pressure (BPH rat models [6]; single intravenous injection 0.3 and 1 mg/kg, FIGS. 5 to 8): prevented dose-dependently
intraurethral pressures (IUP) (BPH rat models [7]): decreased dose-dependently and significantly

Compound: CCCc1nc(C)c2c(=O)[nH]c(-c3cc(S(=O)(=O)N4CCN(CC)CC4)ccc3OCC)nn12 [Levitra]
Interrupt rate (%) of administration due to side effects ([1]; 5 mg): 2.7%
Interrupt rate (%) of administration due to side effects ([1]; 10 mg): 2.9%
Interrupt rate (%) of administration due to side effects ([1]; 20 mg): 6.6%

half-life ([4]; 50 mg, BPH patients, plasma): 4.1 ± 1.1 time
half-life ([4]; male, human, plasma, oral, summary of Table 3, read-out: half-life): 3 to 5 h
concentration at 30 min [8]: 319 ng/mL
concentration at 120 min [8]: 633 ng/mL
concentration at 360 min [8]: 259 ng/mL
Compound: CCCc1nn(C)c2c(=O)[nH]c(-c3cc(S(=O)(=O)N4CCN(C)CC4)ccc3OCC)nc12 [Sildenafil]
Interrupt rate (%) of administration due to side effects ([1]; 25 mg): 0.0%
Interrupt rate (%) of administration due to side effects ([1]; 50 mg): 0.7%
Interrupt rate (%) of administration due to side effects ([1]; 100 mg): 3.9%
